In patent publication US20260274892A1, “MACROCYCLIC BROAD SPECTRUM ANTIBIOTICS” (RQx Pharmaceuticals, Inc., priority 2017, published 2026):

What was measured:
[1] = test system: Escherichia coli ATCC 25922; experiment: Minimum inhibitory concentration (MIC), CLSI broth micro-dilution, E. coli; format: cell-based; conditions: Escherichia coli, ATCC25922, 22 h, Table 6, cation adjusted Mueller Hinton Broth + 0.002% Tween-80, 35° C.
Procedure, shortened: (§1)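 Antibacterial potency is measured as MIC by the CLSI broth dilution method. Bacteria at OD600 0.0005 in Tween-80-supplemented cation-adjusted Mueller Hinton broth face ten twofold compound dilutions for 22 h at 35° C.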

[2] = test system: Methicillin Resistant Staphylococcus aureus strain USA 200; experiment: Minimum inhibitory concentration (MIC), CLSI broth micro-dilution, S. aureus; format: cell-based; conditions: Staphylococcus aureus, MRSA / USA200; Table 6; MRSA USA 200; cation adjusted Mueller Hinton Broth + 0.002% Tween-80; 35° C., 22 hours
Procedure, shortened: as §1

| SMILES | MIC [1] | MIC [2] |
| --- | --- | --- |
| Cc1nc(-c2ccc(OC(C)(C)C)cc2)ncc1C(=O)N[C@@H](CCN)C(=O)N(C)[C@@H]1C(=O)N[C@@H](C)C(=O)N[C@H](C(=O)NCC#N)Cc2ccc(OCCN)c(c2)-c2cc1ccc2OCCN (racemic) [Compound 250, rac-(8S,11S,14S)-3,18-bis(2-aminoethoxy)-N-(cyanomethyl)-11-methyl-14-[methyl-[rac-(2S)-4-amino-2-[[2-(4-tert-butoxyphenyl)-4-methyl-pyrimidine-5-carbonyl]amino]butanoyl]amino]-10,13-dioxo-9,12-diazatricyclo[13.3.1.12,6]icosa-1(18),2(20),3,5,15(19),16-hexaene-8-carboxamide] | 0.35 µM | 0.066 µM |
| Cc1nc(-c2ccc(O)cc2)ncc1C(=O)N[C@@H](CCN)C(=O)N(C)[C@@H]1C(=O)N[C@@H](C)C(=O)N[C@H](C(=O)NCC#N)Cc2ccc(OCCN)c(c2)-c2cc1ccc2OCCN (racemic) [Compound 524, rac-(8S,11S,14S)-3,18-bis(2-aminoethoxy)-N-(cyanomethyl)-11-methyl-14-[methyl-[rac-(2S)-4-amino-2-[[2-(4-hydroxyphenyl)-4-methyl-pyrimidine-5-carbonyl]amino]butanoyl]amino]-10,13-dioxo-9,12-diazatricyclo[13.3.1.12,6]icosa-1(18),2(20),3,5,15(19),16-hexaene-8-carboxamide] | 4.5 µM | 0.56 µM |
| Cc1nc(-c2ccc(C(C)(C)C)cc2)ncc1C(=O)N[C@@H](CN)C(=O)N(C)[C@@H]1C(=O)N[C@@H](C)C(=O)N[C@H](C(=O)NCC#N)Cc2ccc(OCCN)c(c2)-c2cc1ccc2OCCN (racemic) [Compound 457, rac-(8S,11S,14S)-3,18-bis(2-aminoethoxy)-N-(cyanomethyl)-11-methyl-14-[methyl-[rac-(2S)-3-amino-2-[[2-(4-tert-butylphenyl)-4-methyl-pyrimidine-5-carbonyl]amino]propanoyl]amino]-10,13-dioxo-9,12-diazatricyclo[13.3.1.12,6]icosa-1(18),2(20),3,5,15(19),16-hexaene-8-carboxamide] | 0.27 µM | 0.025 µM |
| COc1cc(C(=O)N[C@@H](CCN)C(=O)N(C)[C@@H]2C(=O)N[C@@H](C)C(=O)N[C@H](C(=O)NCC#N)Cc3ccc(OCCN)c(c3)-c3cc2ccc3OCCN)c(C)nc1-c1ccc(C(C)(C)C)cc1 (racemic) [Compound 403, rac-(8S,11S,14S)-3,18-bis(2-aminoethoxy)-N-(cyanomethyl)-11-methyl-14-[methyl-[rac-(2S)-4-amino-2-[[6-(4-tert-butylphenyl)-5-methoxy-2-methyl-pyridine-3-carbonyl]amino]butanoyl]amino]-10,13-dioxo-9,12-diazatricyclo[13.3.1.12,6]icosa-1(18),2(20),3,5,15(19),16-hexaene-8-carboxamide] | 0.5 µM | 0.016 µM |
| CC(C)=C(C)c1ccc(-c2nc(C)c(C(=O)N[C@@H](CCN)C(=O)N(C)[C@@H]3C(=O)N[C@@H](C)C(=O)N[C@H](C(=O)NCC#N)Cc4ccc(OCCN)c(c4)-c4cc3ccc4OCCN)c(C)n2)cc1 (racemic) [Compound 272, rac-(8S,11S,14S)-3,18-bis(2-aminoethoxy)-N-(cyanomethyl)-11-methyl-14-[methyl-[rac-(2S)-4-amino-2-[[2-[4-(1,2-dimethylprop-1-enyl)phenyl]-4,6-dimethyl-pyrimidine-5-carbonyl]amino]butanoyl]amino]-10,13-dioxo-9,12-diazatricyclo[13.3.1.12,6]icosa-1(18),2(20),3,5,15(19),16-hexaene-8-carboxamide] | 0.065 µM | 0.012 µM |
| Cc1nc(-c2ccc(C(C)(C)C)cc2)nc(C)c1C(=O)N[C@@H](COCCN)C(=O)N(C)[C@@H]1C(=O)N[C@@H](C)C(=O)N[C@H](C(=O)NCC#N)Cc2ccc(OCCN)c(c2)-c2cc1ccc2OCCN (racemic) [Compound 495, rac-(8S,11S,14S)-3,18-bis(2-aminoethoxy)-N-(cyanomethyl)-11-methyl-14-[methyl-[rac-(2S)-3-(2-aminoethoxy)-2-[[2-(4-tert-butylphenyl)-4,6-dimethyl-pyrimidine-5-carbonyl]amino]propanoyl]amino]-10,13-dioxo-9,12-diazatricyclo[13.3.1.12,6]icosa-1(18),2(20),3,5,15(19),16-hexaene-8-carboxamide] | 1 µM | 0.031 µM |
| C[C@@H]1NC(=O)[C@@H](N(C)C(=O)[C@H](CCN)NC(=O)c2cc(N)c(-c3ccc(C(C)(C)C)cc3)nc2N)c2ccc(OCCN)c(c2)-c2cc(ccc2OCCN)C[C@@H](C(=O)NCC#N)NC1=O (racemic) [Compound 416, rac-(8S,11S,14S)-3,18-bis(2-aminoethoxy)-N-(cyanomethyl)-11-methyl-14-[methyl-[rac-(2S)-4-amino-2-[[2,5-diamino-6-(4-tert-butylphenyl)pyridine-3-carbonyl]amino]butanoyl]amino]-10,13-dioxo-9,12-diazatricyclo[13.3.1.12,6]icosa-1(18),2(20),3,5,15(19),16-hexaene-8-carboxamide] | 3 µM | 0.094 µM |
| Cc1nc(-c2ccc(C(C)(C)C)cc2)nnc1C(=O)N[C@@H](CCN)C(=O)N(C)[C@@H]1C(=O)N[C@@H](C)C(=O)N[C@H](C(=O)NCC#N)Cc2ccc(OCCN)c(c2)-c2cc1ccc2OCCN (racemic) [Compound 385, rac-(8S,11S,14S)-3,18-bis(2-aminoethoxy)-N-(cyanomethyl)-11-methyl-14-[methyl-[rac-(2S)-4-amino-2-[[3-(4-tert-butylphenyl)-5-methyl-1,2,4-triazine-6-carbonyl]amino]butanoyl]amino]-10,13-dioxo-9,12-diazatricyclo[13.3.1.12,6]icosa-1(18),2(20),3,5,15(19),16-hexaene-8-carboxamide] | 0.27 µM | 0.017 µM |

Further molecules by falling MIC [1], results first:

| MIC [1] | MIC [2] | SMILES |
| --- | --- | --- |
| 1.1 µM | 0.026 µM | CCCCCCCc1ccc(C(=O)N[C@@H](CNC)C(=O)N(C)[C@@H]2C(=O)N[C@@H](C)C(=O)N[C@H](C(=O)NCC#N)Cc3ccc(OCCN)c(c3)-c3cc2ccc3OCCN)c(C)c1 (racemic) [Compound 453, rac-(8S,11S,14S)-3,18-bis(2-aminoethoxy)-N-(cyanomethyl)-11-methyl-14-[methyl-[rac-(2S)-2-[(4-heptyl-2-methyl-benzoyl)amino]-3-(methylamino)propanoyl]amino]-10,13-dioxo-9,12-diazatricyclo[13.3.1.12,6]icosa-1(18),2(20),3,5,15(19),16-hexaene-8-carboxamide] |
| 0.45 µM | 0.079 µM | CCc1ccc(-c2nc(C)c(C(=O)N[C@@H](CCN)C(=O)N(C)[C@@H]3C(=O)N[C@@H](C)C(=O)N[C@H](C(=O)NCC#N)Cc4ccc(OCCN)c(c4)-c4cc3ccc4OCCN)c(C)n2)cc1 (racemic) [Compound 260, rac-(8S,11S,14S)-3,18-bis(2-aminoethoxy)-N-(cyanomethyl)-11-methyl-14-[methyl-[rac-(2S)-4-amino-2-[[2-(4-ethylphenyl)-4,6-dimethyl-pyrimidine-5-carbonyl]amino]butanoyl]amino]-10,13-dioxo-9,12-diazatricyclo[13.3.1.12,6]icosa-1(18),2(20),3,5,15(19),16-hexaene-8-carboxamide] |
| 0.38 µM | 0.016 µM | CNc1nc(-c2ccc(C(C)(C)C)cc2)ncc1C(=O)N[C@@H](CCN)C(=O)N(C)[C@@H]1C(=O)N[C@@H](C)C(=O)N[C@H](C(=O)NCC#N)Cc2ccc(OCCN)c(c2)-c2cc1ccc2OCCN [Compound 489] |
| 0.35 µM | 0.063 µM | Cc1nc(-c2ccc(C3(C)CC3)cc2)nc(C)c1C(=O)N[C@@H](CCN)C(=O)N(C)[C@@H]1C(=O)N[C@@H](C)C(=O)N[C@H](C(=O)NCC#N)Cc2ccc(O)c(c2)-c2cc1ccc2OCCN (racemic) [Compound 543, rac-(8S,11S,14S)-18-(2-aminoethoxy)-N-(cyanomethyl)-3-hydroxy-11-methyl-14-[methyl-[rac-(2S)-4-amino-2-[[4,6-dimethyl-2-[4-(1-methylcyclopropyl)phenyl]pyrimidine-5-carbonyl]amino]butanoyl]amino]-10,13-dioxo-9,12-diazatricyclo[13.3.1.12,6]icosa-1(18),2(20),3,5,15(19),16-hexaene-8-carboxamide] |
| 0.27 µM | 0.025 µM | CCCCCCc1cnc2cc(C(=O)N[C@@H](CCN)C(=O)N(C)[C@@H]3C(=O)N[C@@H](C)C(=O)N[C@H](C(=O)NCC#N)Cc4ccc(OCCN)c(c4)-c4cc3ccc4OCCN)c(C)nc2c1 (racemic) [Compound 398, rac-(8S,11S,14S)-3,18-bis(2-aminoethoxy)-N-(cyanomethyl)-11-methyl-14-[methyl-[rac-(2S)-4-amino-2-[(7-hexyl-2-methyl-1,5-naphthyridine-3-carbonyl)amino]butanoyl]amino]-10,13-dioxo-9,12-diazatricyclo[13.3.1.12,6]icosa-1(18),2(20),3,5,15(19),16-hexaene-8-carboxamide] |
| 0.25 µM | 0.016 µM | Cc1cc(-c2ccc(OC3CCCCC3)cc2)nc(C)c1C(=O)N[C@@H](CCN)C(=O)N(C)[C@@H]1C(=O)N[C@@H](C)C(=O)N[C@H](C(=O)NCC#N)Cc2ccc(OCCN)c(c2)-c2cc1ccc2OCCN (racemic) [Compound 364, rac-(8S,11S,14S)-3,18-bis(2-aminoethoxy)-N-(cyanomethyl)-11-methyl-14-[methyl-[rac-(2S)-4-amino-2-[[6-[4-(cyclohexoxy)phenyl]-2,4-dimethyl-pyridine-3-carbonyl]amino]butanoyl]amino]-10,13-dioxo-9,12-diazatricyclo[13.3.1.12,6]icosa-1(18),2(20),3,5,15(19),16-hexaene-8-carboxamide] |
